Measurements as given in patent US6949571B2, “1,2-dihydropyridine compounds, process for preparation of the same and use thereof” (Eisai Co., Ltd., priority 2000, dated 2005).
Where two headings read alike, the source gives them in different places.

Tested on: AMPA receptor
[1] = Table 1, primary culture of rat embryo cerebral cortex nerve cells, 2 μM AMPA, 1 μM MK-801
[2] = Table 3, primary culture of rat embryo cerebral cortex nerve cells, 2 μM AMPA, 1 μM MK-801
[3] = Table 2, suppression of AMPA-induced calcium influx into nerve cells
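Also: primary rat embryonic cortical neurons grown on an astrocyte layer in 96-well plates, used after at least 8 to 10 days in culture, Fura2-AM fluorescence ratio at 340/380 nm excitation.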

IC50 [3] [nM]	Structure (SMILES)	IC50 [1] [nM]	also measured
–	N#Cc1ccccc1-c1cc(-c2ccccc2)cn(-c2ccccn2)c1=O [Example 39, 3-(2-Cyanophenyl)-5-phenyl-1-(2-pyridyl)-1,2-dihydropyridin-2-one]	300	–
–	O=c1c(-c2nc3ccccc3s2)cc(-c2ccccn2)cn1-c1ccccc1 [Example 371, 3-(2-Benzothiazolyl)-5-(2-pyridyl)-1-phenyl-1,2-dihydropyridin-2-one]	–	IC50 [2]: 600 nM
1500	O=c1c(-c2cccc(O)c2)cc(-c2ccccn2)cn1-c1ccccc1 [Example 237, 3-(3-Hydroxyphenyl)-1-phenyl-5-(2-pyridyl)-1,2-dihydropyridin-2-one]	–	–
4400	N#Cc1ccccc1-c1cc(-c2cccc(C(N)=O)n2)cn(-c2ccccc2)c1=O [Example 235, 5-[(6-Aminocarbonyl)pyridin-2-yl]-3-(2-cyanophenyl)-1-phenyl-1,2-dihydropyridin-2-one]	–	–
–	N#Cc1ccccc1-c1cc(-c2ccccc2[N+](=O)[O-])cn(-c2ccccc2)c1=O [Example 1, 3-(2-Cyanophenyl)-5-(2-nitrophenyl)-1-phenyl-1,2-dihydropyridin-2-one]	800	–
–	O=c1c(-c2nc3ccccc3n2-c2ccccc2)cc(-c2ccccn2)cn1-c1ccccc1 [Example 360, 3-(1-Phenylbenzimidazol-2-yl)-5-(2-pyridyl)-1-phenyl-1,2-dihydropyridin-2-one]	–	IC50 [2]: 3100 nM
–	N#Cc1ccccc1-c1cc(-c2ccccn2)cn(Cc2ccccc2)c1=O [Example 31, 3-(2-Cyanophenyl)-5-(2-pyridyl)-1-benzyl-1,2-dihydropyridin-2-one]	100	–
–	O=C(NC12CC3CC(CC(C3)C1)C2)c1cc(-c2ccccn2)cn(-c2ccccc2)c1=O [Example 346, 3-(1-Adamantylaminocarbonyl)-5-(2-pyridyl)-1-phenyl-1,2-dihydropyridin-2-one]	–	IC50 [2]: 3700 nM
1700	O=c1c(-c2ccccc2Cl)cc(COc2ccccc2)cn1-c1ccccc1 [Example 185, 3-(2-Chlorophenyl)-5-phenoxymethyl-1-phenyl-1,2-dihydropyridin-2-one]	–	–
2800	O=c1c(-c2ccc3ccccc3c2)cc(-c2ccccn2)cn1-c1ccccc1 [Example 284, 3-(2-Naphthyl)-5-(2-pyridyl)-1-phenyl-1,2-dihydropyridin-2-one]	–	–
–	O=c1c(-c2cccnc2F)cc(-c2ccccn2)cn1-c1ccc(F)cc1 [Example 82, 3-(2-Fluoro-3-pyridyl)-5-(2-pyridyl)-1-(4-fluorophenyl)-1,2-dihydropyridin-2-one]	800	–
3600	N#Cc1ccccc1-c1cc(-c2ccc3ccccc3c2)cn(-c2cccnc2)c1=O [Example 211, 3-(2-Cyanophenyl)-5-(2-naphthyl)-1-(3-pyridyl)-1,2-dihydropyridin-2-one]	–	–
40	Cc1cccc(C)c1-c1cc(-c2ccccn2)cn(-c2cccnc2)c1=O [Example 135, 3-(2,6-Dimethylphenyl)-5-(2-pyridyl)-1-(3-pyridyl)-1,2-dihydropyridin-2-one]	–	–
700	O=c1c(-c2ccccc2O)cc(-c2ccccn2)cn1-c1ccccc1 [Example 141, 3-(2-Hydroxyphenyl)-5-(2-pyridyl)-1-phenyl-1,2-dihydropyridin-2-one]	–	–
–	N#Cc1ccccc1Nc1cc(-c2ccccn2)cn(-c2ccccc2)c1=O [Example 321, 3-(2-Cyanophenylamino)-5-(2-pyridyl)-1-phenyl-1,2-dihydropyridin-2-one]	–	IC50 [2]: 4000 nM
1100	O=c1c(C2CCCCC2)cc(-c2ccccn2)cn1-c1ccccc1 [Example 192, 3-Cyclohexyl-5-(2-pyridyl)-1-phenyl-1,2-dihydropyridin-2-one]	–	–
–	COc1ccccc1-c1cc(-c2ccccc2C#N)c(=O)n(-c2ccccc2)c1 [Example 42, 3-(2-Cyanophenyl)-5-(2-methoxyphenyl)-1-phenyl-1,2-dihydropyridin-2-one]	200	–
–	CNC(=O)c1cccc(-n2cc(-c3ccccn3)cc(-c3ccccc3C#N)c2=O)c1 [Example 15, 3-(2-Cyanophenyl)-5-(2-pyridyl)-1-(3-methylaminocarbonylphenyl)-1,2-dihydropyridin-2-one]	50	–
4200	Cc1ccc(C)n1-c1cccc(-c2cc(-c3ccccc3C#N)c(=O)n(-c3ccccc3)c2)n1 [Example 297, 3-(2-Cyanophenyl)-5-[2-(2,6-dimethylpvrrol-1-yl)pyridin-6-yl]-1-phenyl-1,2-dihydropyridin-2-one]	–	–
–	N#Cc1ccccc1-c1cc(-c2ccccn2)cn(-c2ccncc2)c1=O [Example 117, 3-(2-Cyanophenyl)-5-(2-pyridyl)-1-(4-pyridyl)-1,2-dihydropyridin-2-one]	400	–
100	N#Cc1ccccc1-c1cc(-c2ccccn2)cn(-c2ccccc2CO)c1=O [Example 149, 3-(2-Cyanophenyl)-5-(2-pyridyl)-1-(2-hydroxymethylphenyl)-1,2-dihydropyridin-2-one]	–	–
1900	O=c1c(C2=COCCO2)cc(-c2ccccn2)cn1-c1ccccc1 [Example 269, 3-(5,6-Dihydro-1,4-dioxin-2-yl)-1-phenyl-5-(2-pyridyl)-1,2-dihydropyridin-2-one]	–	–
–	O=c1c(-c2cccnc2F)cc(-c2ccccc2)cn1-c1cccnc1 [Example 87, 3-(2-Fluoro-3-pyridyl)-5-phenyl-1-(3-pyridyl)-1,2-dihydropyridin-2-one]	1200	–
4200	N#Cc1ccccc1-c1cc(-c2cccc[n+]2[O-])cn(-c2ccccc2)c1=O [Example 173, 3-(2-Cyanophenyl)-5-(2-pyridyl 1-oxide)-1-phenyl-1,2-dihydropyridin-2-one]	–	–
–	N#Cc1ccc(-n2cc(-c3ccccn3)cc(-c3ccccc3C#N)c2=O)cc1 [Example 93, 3-(2-Cyanophenyl)-5-(2-pyridyl)-1-(4-cyanophenyl)-1,2-dihydropyridin-2-one]	1900	–
1800	N#Cc1ccccc1-c1cc(-c2ccccn2)cn(-c2cccc(OCCCN3CCCCC3)c2)c1=O [Example 244, 3-(2-Cyanophenyl)-1-[3-(piperidinopropyloxy)phenyl]-5-(2-pyridyl)-1,2-dihydropyridin-2-one]	–	–
–	CSc1ccc(-n2cc(-c3ccccn3)cc(-c3ccccc3C#N)c2=O)cc1 [Example 26, 3-(2-Cyanophenyl)-5-(2-pyridyl)-1-(4-methylthiophenyl)-1,2-dihydropyridin-2-one]	20	–
–	O=c1c(-c2ccc(F)cc2)cc(-c2ccccn2)cn1-c1ccccc1 [Example 73, 3-(4-Fluorophenyl)-5-(2-pyridyl)-1-phenyl-1,2-dihydropyridin-2-one]	1200	–

Structure (SMILES)	IC50 [3] [nM]	IC50 [1] [nM]	also measured
Cc1ccnc(-c2cc(-c3ccccc3C#N)c(=O)n(-c3ccccc3)c2)c1 [Example 197, 3-(2-Cyanophenyl)-5-(4-methylpyridin-2-yl)-1-phenyl-1,2-dihydropyridin-2-one]	2900	–	–
Cc1ccc(-n2cc(-c3ccccn3)cc(-c3ccccc3C#N)c2=O)cc1N [Example 222, 3-(2-Cyanophenyl)-5-(2-pyridyl)-1-(2-aminotoluen-4-yl)-1,2-dihydropyridin-2-one]	200	–	–
N#Cc1ccccc1-c1cc(-c2ccc(N)cn2)cn(-c2ccccc2)c1=O [Example 217, 5-(5-Aminopyridin-2-yl)-3-(2-cyanophenyl)-1-phenyl-1,2-dihydropyridin-2-one]	1300	–	–
N#Cc1ccccc1-c1cc(-c2ccccn2)cn(-c2ccc(CO)cc2)c1=O [Example 148, 3-(2-Cyanophenyl)-5-(2-pyridyl)-1-(4-hydroxymethylphenyl)-1,2-dihydropyridin-2-one]	800	–	–
